Values of other authors, collected in patent US20210177818A1, “Antibacterial Formulation for Treating and Prophylactic use in Bacterial, and Fungal Urinary Bladder Infections” (priority 2019, published 2021).

Conditions: in acetone, acetic acid, or ethanol

CCCCCCCCCCCCCCCC[n+]1ccccc1 [Cetylpyridinium chloride, 1-hexa-decyl pyridinium chloride]
solubility: insoluble
